Experimental data from ChEMBL document CHEMBL1144636, “Quinazolinone fungal efflux pump inhibitors. Part 3: (N-methyl)piperazine variants and pharmacokinetic optimization” (Bioorg Med Chem Lett, 2007).
One block for each compound: values may come before it.

Columns and labels:
[1] = Stability in Sprague-Dawley rat hepatocyte after 24 hrs; assay type: ADME, cell-based; conditions: hepatocytes, read-out: Stability
Nakaseomyces glabratus = assay: In vitro potentiation of fluconazole antifungal activity in Candida glabrata YEM19 assessed as 8 fold reduction in fluconazole MIC; assay type: functional
Candida albicans = assay: In vitro potentiation of fluconazole antifungal activity in Candida albicans YEM15 assessed as 8 fold reduction in fluconazole MIC; assay type: functional
Serum = assay: Protein binding in Sprague-Dawley rat serum; assay type: ADME, cell-free; parameters: concentration or dose not given beside the values
[2] = Total clearance in Sprague-Dawley rat at 5 mg/kg, iv; assay type: ADME, organism-based; parameters: dose 5 mg/kg, route intravenous; conditions: in vivo

remaining at 24 h [1]: 18% | Activity (Serum): 74%
Structure (SMILES): COc1ccc(N(C(=O)Nc2ccc(F)cc2)C(C)c2nc3ccccc3c(=O)n2N2CCN(C)CC2)c(OC)c1 (configuration not stated)
Activity (Nakaseomyces glabratus): 4 µg/mL | Activity (Candida albicans): 4 µg/mL

Structure (SMILES): CNCC(=O)N1CCN(n2c(C(C)N(C(=O)Nc3ccc(F)cc3)c3ccc(OC)cc3OC)nc3ccccc3c2=O)CC1 (configuration not stated)
Activity (Nakaseomyces glabratus): 4 µg/mL | Activity (Candida albicans): >32 µg/mL

Structure (SMILES): COc1ccc(N(C(=O)Nc2ccc(F)cc2)C(C)c2nc3ccccc3c(=O)n2N2CCN(C=O)CC2)c(OC)c1 (configuration not stated)
Activity (Nakaseomyces glabratus): 4 µg/mL | Activity (Candida albicans): 2 µg/mL

Structure (SMILES): COc1ccc(N(C(=O)Nc2ccc(F)cc2)C(C)c2nc3ccccc3c(=O)n2N2CCN(C(=O)[C@H]3CCCN3)CC2)c(OC)c1 (some centres not stated)
Activity (Nakaseomyces glabratus): 2 µg/mL | Activity (Candida albicans): >32 µg/mL

remaining at 24 h [1]: 4%
Structure (SMILES): COC(=O)N[C@@H]1CCN(C(=O)N2CCN(n3c(C(C)N(C(=O)Nc4ccc(F)cc4)c4ccc(OC)cc4OC)nc4ccccc4c3=O)CC2)C1 (some centres not stated)
Activity (Nakaseomyces glabratus): 0.5 µg/mL | Activity (Candida albicans): 0.25 µg/mL

Structure (SMILES): COc1ccc(N(C(=O)Nc2ccc(F)cc2)C(C)c2nc3ccccc3c(=O)n2N2CCNCC2)c(OC)c1 (configuration not stated)
Activity (Nakaseomyces glabratus): 32 µg/mL | Activity (Candida albicans): >32 µg/mL

Structure (SMILES): COc1ccc(N(C(=O)Nc2ccc(F)cc2)C(C)c2nc3ccccc3c(=O)n2N2CCCCC2)c(OC)c1 (configuration not stated)
Activity (Nakaseomyces glabratus): >32 µg/mL | Activity (Candida albicans): >32 µg/mL

Structure (SMILES): COC(=O)NCC(=O)N1CCN(n2c(C(C)N(C(=O)Nc3ccc(F)cc3)c3ccc(OC)cc3OC)nc3ccccc3c2=O)CC1 (configuration not stated)
Activity (Nakaseomyces glabratus): 2 µg/mL | Activity (Candida albicans): >32 µg/mL

clearance [2]: 125 mL/min/kg | Activity (Serum): 87%
Structure (SMILES): COC(=O)N[C@@H](C)C(=O)N1CCN(n2c([C@H](C)N(C(=O)Nc3ccc(F)cc3)c3ccc(OC)cc3OC)nc3cc(F)ccc3c2=O)CC1
Activity (Nakaseomyces glabratus): 0.0625 µg/mL | Activity (Candida albicans): 0.5 µg/mL

Structure (SMILES): COc1ccc(N(C(=O)Nc2ccc(F)cc2)C(C)c2nc3ccccc3c(=O)n2N2CCN(C(=O)C3CCCC3)CC2)c(OC)c1 (configuration not stated)
Activity (Nakaseomyces glabratus): 0.125 µg/mL | Activity (Candida albicans): 0.25 µg/mL

remaining at 24 h [1]: 7% | Activity (Serum): 82%
Structure (SMILES): COC(=O)N[C@H](C)C(=O)N1CCN(n2c(C(C)N(C(=O)Nc3ccc(F)cc3)c3ccc(OC)cc3OC)nc3ccccc3c2=O)CC1 (some centres not stated)
Activity (Nakaseomyces glabratus): 0.5 µg/mL | Activity (Candida albicans): 4 µg/mL

clearance [2]: 83.3 mL/min/kg | Activity (Serum): 98%
Structure (SMILES): COc1ccc(N(C(=O)Nc2cccc(Cl)c2)C(C)c2nc3ccccc3c(=O)n2N2CCN(C)CC2)c(OC)c1 (configuration not stated)
Activity (Nakaseomyces glabratus): 4 µg/mL | Activity (Candida albicans): 1 µg/mL

remaining at 24 h [1]: 77% | Activity (Serum): 77%
Structure (SMILES): COc1ccc(N(C(=O)Nc2ccc(F)cc2)C(C)c2nc3ccccc3c(=O)n2N2CCN(C(=O)[C@@H]3CCCN3)CC2)c(OC)c1 (some centres not stated)
Activity (Nakaseomyces glabratus): 4 µg/mL | Activity (Candida albicans): >32 µg/mL

Structure (SMILES): COc1ccc(N(C(=O)Nc2ccc(F)cc2)C(C)c2nc3ccccc3c(=O)n2N2CCN(C(=O)C3CCCO3)CC2)c(OC)c1 (configuration not stated)
Activity (Nakaseomyces glabratus): 0.125 µg/mL | Activity (Candida albicans): 0.5 µg/mL

Structure (SMILES): COc1ccc(N(C(=O)Nc2ccc(F)cc2)C(C)c2nc3ccccc3c(=O)n2N2CCN(C(=O)[C@@H]3CCCN3C)CC2)c(OC)c1 (some centres not stated)
Activity (Nakaseomyces glabratus): 2 µg/mL | Activity (Candida albicans): 32 µg/mL

remaining at 24 h [1]: 0%
Structure (SMILES): COc1ccc(N(C(=O)Nc2ccc(F)cc2)C(C)c2nc3ccccc3c(=O)n2N2CCN(C(=O)N3CCCC3)CC2)c(OC)c1 (configuration not stated)
Activity (Nakaseomyces glabratus): <0.03 µg/mL | Activity (Candida albicans): 0.0625 µg/mL

Structure (SMILES): COC(=O)N(C)[C@@H](C)C(=O)N1CCN(n2c(C(C)N(C(=O)Nc3ccc(F)cc3)c3ccc(OC)cc3OC)nc3ccccc3c2=O)CC1 (some centres not stated)
Activity (Nakaseomyces glabratus): 0.5 µg/mL | Activity (Candida albicans): 0.5 µg/mL

remaining at 24 h [1]: 39% | Activity (Serum): 82%
Structure (SMILES): COC(=O)N[C@@H](C)C(=O)N1CCN(n2c(C(C)N(C(=O)Nc3ccc(F)cc3)c3ccc(OC)cc3OC)nc3ccccc3c2=O)CC1 (some centres not stated)
Activity (Nakaseomyces glabratus): 0.25 µg/mL | Activity (Candida albicans): 2 µg/mL

Structure (SMILES): COC(=O)N[C@@H](CO)C(=O)N1CCN(n2c(C(C)N(C(=O)Nc3ccc(F)cc3)c3ccc(OC)cc3OC)nc3ccccc3c2=O)CC1 (some centres not stated)
Activity (Nakaseomyces glabratus): 8 µg/mL | Activity (Candida albicans): 32 µg/mL

Structure (SMILES): COC(=O)N[C@H](C(=O)N1CCN(n2c(C(C)N(C(=O)Nc3ccc(F)cc3)c3ccc(OC)cc3OC)nc3ccccc3c2=O)CC1)[C@H](C)O (some centres not stated)
Activity (Nakaseomyces glabratus): 2 µg/mL | Activity (Candida albicans): 2 µg/mL

Structure (SMILES): COc1ccc(N(C(=O)Nc2ccc(F)cc2)C(C)c2nc3ccccc3c(=O)n2N2CCN(C[C@@H]3CCCN3)CC2)c(OC)c1 (some centres not stated)
Activity (Nakaseomyces glabratus): 2 µg/mL | Activity (Candida albicans): 32 µg/mL

remaining at 24 h [1]: 23%
Structure (SMILES): COC(=O)N[C@H]1CCN(C(=O)N2CCN(n3c(C(C)N(C(=O)Nc4ccc(F)cc4)c4ccc(OC)cc4OC)nc4ccccc4c3=O)CC2)C1 (some centres not stated)
Activity (Nakaseomyces glabratus): 0.25 µg/mL | Activity (Candida albicans): 4 µg/mL

Structure (SMILES): CCOC(=O)N1CCN(n2c(C(C)N(C(=O)Nc3ccc(F)cc3)c3ccc(OC)cc3OC)nc3ccccc3c2=O)CC1 (configuration not stated)
Activity (Nakaseomyces glabratus): 0.5 µg/mL | Activity (Candida albicans): 0.25 µg/mL

Structure (SMILES): CCNC(=O)N1CCN(n2c(C(C)N(C(=O)Nc3ccc(F)cc3)c3ccc(OC)cc3OC)nc3ccccc3c2=O)CC1 (configuration not stated)
Activity (Nakaseomyces glabratus): 1 µg/mL | Activity (Candida albicans): 1 µg/mL

Structure (SMILES): COc1ccc(N(C(=O)Nc2ccc(F)cc2)C(C)c2nc3ccccc3c(=O)n2N2CCN(C(N)=O)CC2)c(OC)c1 (configuration not stated)
Activity (Nakaseomyces glabratus): 16 µg/mL | Activity (Candida albicans): 8 µg/mL

Structure (SMILES): COc1ccc(N(C(=O)Nc2ccc(F)cc2)C(C)c2nc3ccccc3c(=O)n2N2CCN(C(=O)[C@@H]3CCCN3C3CC3)CC2)c(OC)c1 (some centres not stated)
Activity (Nakaseomyces glabratus): 0.25 µg/mL | Activity (Candida albicans): 1 µg/mL

Structure (SMILES): COc1ccc(N(C(=O)Nc2ccc(F)cc2)C(C)c2nc3ccccc3c(=O)n2N2CCN(C(=O)[C@H](C)N3CCCC3)CC2)c(OC)c1 (some centres not stated)
Activity (Nakaseomyces glabratus): 0.25 µg/mL | Activity (Candida albicans): 8 µg/mL

Structure (SMILES): COc1ccc(N(C(=O)Nc2ccc(F)cc2)C(C)c2nc3ccccc3c(=O)n2N2CCN(C(=O)CN3CCCC3)CC2)c(OC)c1 (configuration not stated)
Activity (Nakaseomyces glabratus): 1 µg/mL | Activity (Candida albicans): 4 µg/mL

Structure (SMILES): COc1ccc(N(C(=O)Nc2ccc(F)cc2)C(C)c2nc3ccccc3c(=O)n2N2CCN(C(=O)C[C@@H]3CCCN3)CC2)c(OC)c1 (some centres not stated)
Activity (Nakaseomyces glabratus): 0.5 µg/mL | Activity (Candida albicans): >32 µg/mL

Structure (SMILES): COC(=O)N[C@H](C(=O)N1CCN(n2c(C(C)N(C(=O)Nc3ccc(F)cc3)c3ccc(OC)cc3OC)nc3ccccc3c2=O)CC1)C(C)C (some centres not stated)
Activity (Nakaseomyces glabratus): 2 µg/mL | Activity (Candida albicans): 1 µg/mL

Structure (SMILES): COc1ccc(N(C(=O)Nc2ccc(F)cc2)C(C)c2nc3ccccc3c(=O)n2N2CCN(C(=O)[C@H](C)N)CC2)c(OC)c1 (some centres not stated)
Activity (Nakaseomyces glabratus): 4 µg/mL | Activity (Candida albicans): >32 µg/mL
